Results reported in the RepoRT retention time repository (doi:10.1021/acs.analchem.1c00972).

Experiments:
[1] = RP, Waters ACQUITY UPLC BEH C18, 100 × 1 mm, 1.7 µm, 50 °C, 0.3 mL/min, estimated dead time 0.17 min; A: water + 0.1% formic acid + 20 mM ammonium formate; B: methanol + 0.1% formic acid + 20 mM ammonium formate; gradient (min/%B) 0/0 15/100 21/100 22/0 30/0; details: stereoisomer not certain
[2] = RP, Waters ACQUITY UPLC BEH C18, 100 × 1 mm, 1.7 µm, 50 °C, 0.3 mL/min, estimated dead time 0.17 min; A: water + 10 mM ammonium bicarbonate; B: 10% water + 90% methanol + 10 mM ammonium bicarbonate; gradient (min/%B) 0/0 15/100 21/100 22/0 30/0; details: stereoisomer not certain

| SMILES | LC retention time [1] [min] | LC retention time [2] [min] |
| --- | --- | --- |
| CC1C(=O)OC2CCN3CC=C(COC(=O)C(C)(O)C1(C)O)C23 (configuration not stated) [Monocrotaline] | 5.17 | 8.97 |
| CN1CCC23c4c5ccc(O)c4OC2C(O)C=CC3C1C5 (configuration not stated) [Morphine] | 4.19 | 10.4 |
| CON=C1CC2(CC3CC(CC=C(C)CC(C)C=CC=C4COC5C(O)C(C)=CC(C(=O)O3)C45O)O2)OC(C(C)=CC(C)C)C1C (configuration not stated) [Moxidectin] | 18.6 | 19 |
| COc1c(C(C)(C)C)cc([N+](=O)[O-])c(C)c1[N+](=O)[O-] [Musk ambrette] | 8.38 | 6.58 |
| CCCCCCCCCC(=O)N(C)C [N,N-Dimethyldecan-1-amide] | 16.1 | 16.5 |
| CCCCCCCCCC[N+](C)(C)[O-] [N,N-Dimethyldecylamine-N-oxide] | 13.8 | 15.2 |
| CC(C)CC(C)Nc1ccc(Nc2ccccc2)cc1 (configuration not stated) [N-(1,3-Dimethylbutyl)-N'-phenyl-1,4-phenylenediamine] | 13.3 | 17.2 |
| CN=CNc1ccc(C)cc1C [N-(2,4-Dimethylphenyl)-N-methyl-formamidine] | 7.83 | 12.1 |
| CC(=O)N(C)c1ccc(N)cc1 [N-(4-Aminophenyl)-N-methyl-acetamid] | 5.17 | 7.24 |
| CCNS(=O)(=O)c1ccccc1C [N-Ethyl-o-toluenesulfonamide] | 11.4 | 11.6 |
| CN(C1CCCCC1)C1CCCCC1 [N-Methyl-dicyclohexylamine] | 9.22 | 13.1 |
| CCCCCCCCCCCCNC [N-Methyldodecylamine] | 15.2 | 17.7 |
| O=NN1CCOCC1 [N-Nitrosomorpholine] | 3.69 | 3.78 |
| c1ccc2sc(NC3CCCCC3)nc2c1 [N-cyclohexyl-2-benzothiazole-amine] | 14.1 | 15.8 |
| COP(=O)(OC)OC(Br)C(Cl)(Cl)Br (configuration not stated) [Naled] | 13.3 | 13.6 |
| COc1ccc2cc(C(C)C(=O)O)ccc2c1 (configuration not stated) [Naproxen] | 13.8 | 11 |
| O=C1NC2C(=CC(O)C(O)C2O)c2cc3c(c(O)c21)OCO3 (configuration not stated) [Narciclasine] | 7.92 | 7.93 |
| COc1ccc(CCC(=O)c2c(O)cc(OC3OC(CO)C(O)C(O)C3OC3OC(C)C(O)C(O)C3O)cc2O)cc1O (configuration not stated) [Neohesperidin DC] | 11.5 | 10.4 |
| O=C(Nc1ccc([N+](=O)[O-])cc1Cl)c1cc(Cl)ccc1O [Niclosamide] | 16.7 | 13.6 |
| COC1CC(CC2CCC(C)C(C(C)C(=O)O)O2)OC2(OC(C)(C3CCC(C)(C4OC(C5OC(O)(CO)C(C)CC5C)CC4C)O3)CC2C)C1C (configuration not stated) [Nigericin] | 18.8 | 19.7 |
| CC1=CC2OC3C(O)C(O)C(C)(C34CO4)C2(CO)C(O)C1=O (configuration not stated) [Nivalenol] | 5.87 | 5.94 |
| C#CC1(O)CCC2C3CCC4=CC(=O)CCC4C3CCC21C (configuration not stated) [Norethindrone] | 13.9 | 14.2 |

| SMILES | LC retention time [1] [min] | LC retention time [2] [min] |
| --- | --- | --- |
| C#CC1(OC(C)=O)CCC2C3CCC4=CC(=O)CCC4C3CCC21C (configuration not stated) [Norethisterone acetate] | 15.4 | 15.7 |
| CNc1cnn(-c2cccc(C(F)(F)F)c2)c(=O)c1Cl [Norflurazon] | 13.3 | 13.5 |
| C#CC1(OC(C)=O)CCC2C3CCC4=CC(=NO)CCC4C3CCC21CC (configuration not stated) [Norgestimate] | 16.4 | 16.6 |
| COc1ccc2c(c1OC)C(=O)OC2C1c2c(cc3c(c2OC)OCO3)CCN1C (configuration not stated) [Noscapin] | 9.81 | 14.8 |
| CCCCC(CC)COC(=O)C(C#N)=C(c1ccccc1)c1ccccc1 (configuration not stated) [Octocrylene] | 17.8 | 18.2 |
| CC1COc2c(N3CCN(C)CC3)c(F)cc3c(=O)c(C(=O)O)cn1c23 (configuration not stated) [Ofloxacin] | 8.04 | 9.6 |
| COC1CC(OC2CCC3(C)C(CCC4C3CCC3(C)C(C5=CC(=O)OC5)C(OC(C)=O)CC43O)C2)OC(C)C1O (configuration not stated) [Oleandrin] | 14.4 | 14.7 |
| CCCc1nc(C(C)(C)O)c(C(=O)O)n1Cc1ccc(-c2ccccc2-c2nn[nH]n2)cc1 [Olmesartan] | 10.9 | 10.6 |
| Cc1nccn1CC1CCc2c(c3ccccc3n2C)C1=O (configuration not stated) [Ondansetron] | 9.64 | 12.4 |
| CCN(CC)C(=O)SCc1ccccc1Cl [Orbencarb] | 15.9 | 16.3 |
| Cc1onc(-c2ccccc2)c1C(=O)NC1C(=O)N2C1SC(C)(C)C2C(=O)O (configuration not stated) [Oxacillin] | 12.7 | 11.6 |
| COCC(=O)N(c1c(C)cccc1C)N1CCOC1=O [Oxadixyl] | 11 | 11.2 |
| Cc1cc(C)nc(NC(=O)NS(=O)(=O)c2ccccc2C(=O)OC2COC2)n1 [Oxasulfuron] | 11.3 | 9.07 |
| O=C1Nc2ccc(Cl)cc2C(c2ccccc2)=NC1O (configuration not stated) [Oxazepam] | 13.2 | 13.5 |
| CCN(CC)CC#CCOC(=O)C(O)(c1ccccc1)C1CCCCC1 (configuration not stated) [Oxybutynin] | 13.6 | 17.2 |
| CC(C)(C)C(O)C(Cc1ccc(Cl)cc1)n1cncn1 (configuration not stated) [Paclubutrazole] | 14.4 | 14.6 |
| COc1ccc(Cc2nccc3cc(OC)c(OC)cc23)cc1OC [Papaverin] | 9.77 | 13.3 |
| CC1CC2C3CC(F)C4=CC(=O)C=CC4(C)C3C(O)CC2(C)C1(O)C(=O)CO (configuration not stated) [Paramethasone] | 13.2 | 13.5 |
| Fc1ccc(C2CCNCC2COc2ccc3c(c2)OCO3)cc1 (configuration not stated) [Paroxetine] | 12.8 | 15 |
| C=C1C(=O)OC2C1CCC(C)=CCCC1(C)OC21 (configuration not stated) [Parthenolid] | 12.8 | 13.1 |
| CC(=O)CCCCn1c(=O)c2c(ncn2C)n(C)c1=O [Pentoxifylline] | 9.87 | 9.98 |
| CC(=O)c1cc2c(cc1C)C(C)(C)C(C)C2(C)C (configuration not stated) [Phantolide] | 17.5 | 17.9 |

| SMILES | LC retention time [1] [min] | LC retention time [2] [min] |
| --- | --- | --- |
| Cc1cc(=O)n(-c2ccccc2)n1C [Phenazone] | 8.9 | 8.96 |
| CNCC(O)c1cccc(O)c1 (configuration not stated) [Phenylephrine] | 2.01 | 5.43 |
| CCOP(=S)(OCC)ON=C(C#N)c1ccccc1 [Phoxim] | 15.9 | 14.4 |
| Nc1c(Cl)c(Cl)nc(C(=O)O)c1Cl [Picloram] | 7.28 | 4.43 |
| C=C(C)C1C2OC(=O)C1C1(O)CC3OC34C(=O)OC2C14C (configuration not stated) [Picrotoxinin] | 9.25 | 9.36 |
| CCC1C(=O)OCC1Cc1cncn1C (configuration not stated) [Pilocarpine] | 4.92 | 8.77 |
| CC(C)NCC(O)COc1cccc2[nH]ccc12 (configuration not stated) [Pindolol] | 7.51 | 10.2 |
| CCc1ccc(CCOc2ccc(CC3SC(=O)NC3=O)cc2)nc1 (configuration not stated) [Pioglitazone] | 11.1 | 13.3 |
| NC(=O)C1(N2CCCCC2)CCN(CCCC(=O)c2ccc(F)cc2)CC1 [Pipamperone] | 9.31 | 14.5 |
| CCCOP(=S)(OCCC)SCC(=O)N1CCCCC1C (configuration not stated) [Piperophos] | 16.3 | 16.6 |
| CCN(CC)c1nc(C)cc(OP(=S)(OC)OC)n1 [Pirimiphos-methyl] | 15.8 | 16.3 |
| O=C(C1CCCCC1)N1CC(=O)N2CCc3ccccc3C2C1 (configuration not stated) [Praziquantel] | 14 | 14.3 |
| CC12C=CC(=O)C=C1CCC1C2C(=O)CC2(C)C1CCC2(O)C(=O)CO (configuration not stated) [Prednisone] | 12 | 12.2 |
| CCCNC(C)C(=O)Nc1ccccc1C (configuration not stated) [Prilocaine] | 8.85 | 13.8 |
| COC(=O)c1ccccc1S(=O)(=O)NC(=O)Nc1nc(OC(F)F)cc(OC(F)F)n1 [Primisufuron-methyl] | 14.4 | 12.6 |
| CC(=O)C1CCC2C3CCC4=CC(=O)CCC4(C)C3CCC12C (configuration not stated) [Progesterone] | 15.5 | 15.9 |
| CC(CN1c2ccccc2Sc2ccccc21)N(C)C (configuration not stated) [Promethazin] | 12.5 | 16.8 |
| COc1nc(NC(C)C)nc(NC(C)C)n1 [Prometon] | 12.2 | 14.1 |
| CC(C)Nc1nc(NC(C)C)[nH]c(=O)n1 [Propazine-2-hydroxy] | 9.88 | 12.2 |
| CCCOc1nn(C(=O)NS(=O)(=O)c2ccccc2C(=O)OC)c(=O)n1C [Propoxycarbazone] | 11.8 | 9.89 |
| CCC(=O)OC(Cc1ccccc1)(c1ccccc1)C(C)CN(C)C (configuration not stated) [Propoxyphene] | 12.5 | 16.8 |
| Cc1c(C(C)C)c(=O)n(-c2ccccc2)n1C [Propyphenazone] | 12.3 | 12.6 |
